Experimental data published in patent US7576087B2, “Heterocyclyl-3-sulfonylazaindole or -azaindazole derivatives as 5-hydroxytryptamine-6 ligands” (Wyeth, priority 2003, dated 2009).
pKi: −log10 of the molar value. Structures can show the parent of a compound that is named as a salt.

Each molecule was assayed against human cloned 5-HT6 receptors (Homo sapiens, UniProt P50406).
human cloned 5-HT6 receptors, sequence (P50406 whole entry): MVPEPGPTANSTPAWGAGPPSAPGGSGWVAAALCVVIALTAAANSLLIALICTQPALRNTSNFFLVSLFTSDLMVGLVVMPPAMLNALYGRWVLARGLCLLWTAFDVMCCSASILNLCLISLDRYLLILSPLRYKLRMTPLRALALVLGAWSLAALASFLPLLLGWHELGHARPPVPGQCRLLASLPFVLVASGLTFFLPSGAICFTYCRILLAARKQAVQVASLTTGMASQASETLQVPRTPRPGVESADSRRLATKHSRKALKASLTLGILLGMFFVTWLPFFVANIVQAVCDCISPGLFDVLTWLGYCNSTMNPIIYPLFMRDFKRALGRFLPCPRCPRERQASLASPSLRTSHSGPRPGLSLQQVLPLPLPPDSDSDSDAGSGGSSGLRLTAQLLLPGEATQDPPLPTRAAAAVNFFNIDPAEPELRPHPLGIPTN

pKi | Compound
7.47 | CN1CCN(c2ccc3[nH]nc(S(=O)(=O)c4ccccc4)c3n2)CC1 [Example 4, 5-(4-methylpiperazin-1-yl)-3-(phenylsulfonyl)-1H-pyrazolo-[4,3-b]pyridine hydrochloride]
7.52 | O=S(=O)(c1ccccc1)c1c[nH]c2ccc(N3CCN(Cc4ccccc4)CC3)nc12 [Example 8, 5-(4-Benzylpiperazin-1-yl)-3-(phenylsulfonyl)-1H-pyrrolo[3,2-b]pyridine]
8.70 | O=S(=O)(c1ccccc1)c1c[nH]c2ccc(N3CCNCC3)nc12 [Example 9, 3-(Phenylsulfonyl)-5-piperazin-1-yl-1H-pyrrolo[3,2-b]pyridine Dihydrochloride]
